Several values for one entry are separate records, joined by “and”; a condition that tells them apart may be missing. Equal entries are not always repeated.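 Interpolation was linear, between the two tested concentrations surrounding the appropriate level; five concentrations were tested over 48 hours in 96-well plates. GI50 = concentration required for 50% inhibition of growth. The concentration for full growth arrest is given as TGI.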
Tests used:
Test in all cases: NCI tumour cell line growth inhibition, 48 h
HT29 colon = tested on: HT29 colon
M14 melanoma = tested on: M14 melanoma
NCI-H522 lung = tested on: NCI-H522 lung
OVCAR-4 ovarian = tested on: OVCAR-4 ovarian
SF-268 CNS = tested on: SF-268 CNS
SK-MEL-28 melanoma = tested on: SK-MEL-28 melanoma
SK-MEL-5 melanoma = tested on: SK-MEL-5 melanoma
SN12C renal = tested on: SN12C renal
SR leukemia = tested on: SR leukemia
SW-620 colon = tested on: SW-620 colon

SMILES	GI50 (HT29 colon)	TGI (HT29 colon)	GI50 (M14 melanoma)	TGI (M14 melanoma)	GI50 (NCI-H522 lung)	TGI (NCI-H522 lung)	GI50 (OVCAR-4 ovarian)	TGI (OVCAR-4 ovarian)	GI50 (SF-268 CNS)	TGI (SF-268 CNS)	GI50 (SK-MEL-28 melanoma)	TGI (SK-MEL-28 melanoma)	GI50 (SK-MEL-5 melanoma)	TGI (SK-MEL-5 melanoma)	GI50 (SN12C renal)	TGI (SN12C renal)	GI50 (SR leukemia)	TGI (SR leukemia) [µM]	GI50 (SW-620 colon)	TGI (SW-620 colon)
C=C1c2c(Cl)ccc(O)c2C(O)=C2C(=O)[C@]3(O)C(O)=C(C(N)=O)C(=O)[C@@H](N(C)C)[C@@H]3[C@@H](O)[C@H]12	1.55 µM	6.18 µM	1.32 µM	5.79 µM	1.01 µM	3.06 µM	0.347 µM	9.66 µM	1.41 µM	7.16 µM	1.08 µM	4.45 µM	0.801 µM	1.57 µM	1.38 µM	12.4 µM	1.58 µM	> 50	1.5 µM	> 50 µM
[Cl][Cd][Cl]	45.4 µM	130 µM	43.4 µM and 62.3 µM	> 76.9 µM and 161 µM	0.32 µM and 1.39 µM and 0.349 µM	3.65 µM and 1.55 µM	7.95 µM and 19.6 µM and 8.69 µM	36.1 µM and 23.7 µM	16.5 µM and 8.95 µM	33.9 µM and 24.4 µM	17.9 µM and 11.6 µM	34.6 µM and 30.4 µM	1.18 µM and 3.62 µM and 0.518 µM	3.31 µM and 22.4 µM and 5.9 µM	> 69 µM and 53 µM	158 µM	52.3 µM and 6.16 µM	500	19.5 µM and 17.2 µM	37.1 µM and 76.7 µM
OCCN1CCN(CC/C=C2\c3ccccc3Sc3ccc(Cl)cc32)CC1	1.72 µM and 1.69 µM	3.92 µM and 3.42 µM	1.78 µM	4.27 µM and 3.22 µM	11.6 µM and 1.75 µM	29.1 µM and 3.38 µM	8.38 µM and 8.18 µM	20.7 µM and 21.1 µM	2.58 µM and 4.5 µM	10.9 µM and 15.1 µM	1.66 µM	3.91 µM and 3.03 µM	1.61 µM and 1.67 µM	3.01 µM and 3.04 µM	7.12 µM and 7.01 µM	27.4 µM and 20.4 µM	1.7 µM	4.59	2.38 µM and 1.91 µM	5.48 µM and 4.01 µM
C[C@H]1C(=O)CC[C@]2(C)CCC(C(C)(C)O)CC12O (stereo not given in full)	–	> 100 µM	–	> 100 µM	–	> 100 µM	–	> 100 µM	–	> 100 µM	–	> 100 µM	–	> 100 µM	–	> 100 µM	–	> 100	–	> 100 µM
CCC(=O)N/N=C(\C=C\c1cccc(O)c1)c1sc(Nc2ccc(C)cc2[N+](=O)[O-])nc1C	–	40.6 µM	–	> 100 µM	–	> 100 µM	–	> 100 µM	–	> 100 µM	–	> 100 µM	–	> 100 µM	–	> 100 µM	–	> 100	–	> 100 µM
CC(C)CCN[C@@H]1CCc2cc(O)c(N3CC(=O)NS3(=O)=O)c(F)c2C1	> 100 µM	> 100 µM	> 100 µM	> 100 µM	> 100 µM	> 100 µM	> 100 µM	> 100 µM	> 100 µM	> 100 µM	> 100 µM	> 100 µM	> 100 µM	> 100 µM	> 100 µM	> 100 µM	1.78 µM	> 100	> 100 µM	> 100 µM
O=C(NS(=O)(=O)c1ccccc1)C(Cc1ccccc1)C(Cc1ccccc1)C(=O)NS(=O)(=O)c1ccccc1 (stereo not given)	–	> 100 µM	–	> 100 µM	–	> 100 µM	–	> 100 µM	–	> 100 µM	–	> 100 µM	–	> 100 µM	–	> 100 µM	–	> 100	–	> 100 µM
COC1OC2COC(c3ccccc3)OC2C(O)C1Br (stereo not given)	–	> 100 µM	–	> 100 µM	–	> 100 µM	–	> 100 µM	–	> 100 µM	–	> 100 µM	–	> 100 µM	–	> 100 µM	–	> 100	–	> 100 µM
